Results as given in patent US8192925B2, “Polypeptides having antimicrobial activity and polynucleotides encoding same” (Novozymes Adenium Biotech A/S, priority 2004, dated 2012).

Tests used:
Test in all cases: Microdilution MIC assay (NCCLS/CLSI guidelines)
Assay type in all cases: cell-based
Conditions in all cases: tested 0.06-32 μg/ml
[1] = test system: Enterococcus faecium, ATCC 49624
Procedure: (§1) Purified Eurocin was evaluated for antimicrobial activity in a microdillution assay. The
(§2) Minimal Inhibitory Concentration (MIC) was determined following the NCCLS/CLSI guidelines from CLSI (Clinical and Laboratory Standards Institute).
(§3) Eurocin was tested at the following concentrations: 32; 16; 8; 4; 2; 1; 0.50; 0.25; 0.13; and 0.06 μg/ml.

[2] = test system: Micrococcus luteus, ATCC 9341
Procedure: as §1, §2, §3

[3] = test system: Staphylococcus aureus, ATCC 29213
Procedure: as §1, §2, §3

[4] = test system: Staphylococcus carnosus, ATCC 51365
Procedure: as §1, §2, §3

[5] = test system: Staphylococcus epidermidis, ATCC 12228
Procedure: as §1, §2, §3

[6] = test system: Streptococcus pneumoniae, ATCC 49619
Procedure: as §1, §2, §3

[7] = test system: Streptococcus pyogenes, ATCC 12344
Procedure: as §1, §2, §3

For “Eurocin: antimicrobial polypeptide shown as amino acids 1 to 42 of SEQ ID NO:2, from Eurotium amstelodami, expressed in Aspergillus oryzae (MHFTKVSTILFTIFAAGIMAAPTEGVREEAAPGQEVYPDEPP; listed as Eurotium amstelodami)”, the MIC [1] was 16 µg/mL, the MIC [2] was 0.5 µg/mL and the MIC [3] was 16 µg/mL. For the same substance, the MIC [4] was 8 µg/mL, the MIC [5] was 16 µg/mL and the MIC [6] was 0.25 µg/mL. For the same substance, the MIC [7] was 0.13 µg/mL.
